Experimental data taken from patent publication US12433876B2, “Septin inhibitors for treatment of cancers” (UNIVERSITY OF ROCHESTER, priority 2019, dated 2025).

Target: T1, septin-2 (Homo sapiens, UniProt Q15019)
T1 sequence (Q15019 1-361): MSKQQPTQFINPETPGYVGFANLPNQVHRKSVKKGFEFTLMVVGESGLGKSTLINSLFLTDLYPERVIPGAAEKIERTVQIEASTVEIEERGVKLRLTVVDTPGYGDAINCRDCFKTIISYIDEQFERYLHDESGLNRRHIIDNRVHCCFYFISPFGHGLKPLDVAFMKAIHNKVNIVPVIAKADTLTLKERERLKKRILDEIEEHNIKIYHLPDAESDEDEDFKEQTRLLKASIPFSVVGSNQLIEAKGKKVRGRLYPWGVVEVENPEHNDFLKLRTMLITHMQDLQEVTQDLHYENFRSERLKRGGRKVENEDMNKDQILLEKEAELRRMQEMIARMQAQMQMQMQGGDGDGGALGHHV
Test: Confocal analysis of septin-2 filament structure
Format: cell-based
Details: 48 hours
Text: Cell Cycle Protein Expression. Cell Cycle Antibody Array (FullMoon BioSystems Inc, catalogue number: ACC:058), a high throughput ELISA based antibody array, designed for qualitative/semi-quantitative protein expression profiling was employed to investigate the protein changes after drug treatment. PANC-1 cells were lysed in buffer containing protease and phosphatase inhibitors (Cell Signaling, catalog number: 9803S). Total protein content was quantified by Bradford assay and equal amounts of proteins were analyzed in duplicate with arrays containing 4 to 6 spots for each of 60 probes (ACC058, Cell Cycle Antibody Array; Full Moon Biosystems, Sunnyvale, Calif.), according to manufacturer's instructions. After background correction, mean signal intensities were measured using FullMoon Inc's imaging services. Protein expressions in both the naïve and 328 treatment group was normalized to GAPDH signals. Confocal Analysis of Septin Disarrangement. To determine the impact of UR214-9 treatment on Septin-2 structure in cells, PANC-1 or JIMT-1 cells were seeded on glass slides and allowed to adhere overnight. The media was replaced with complete DMEM media supplemented with DMSO or UR214-9 (1 μM and 70 nM) and cells were incubated for 48 hours. Media was replaced again with new complete medium and fixed with neutral buffered formalin for 15 minutes at […]. Media was removed and cells were washed repeatedly with PBST (5×5 mL). The cells were stained with Septin-2 antibody (Sigma Aldrich, catalog number: HPA018481) in PSB overnight at […]. Media was removed again and cells were washed with 2×5 mL PBST. The cells were stained with fluorescence linked secondary antibody for 1 hr under dark. Slides were washed repeatedly in dark for 7×5 mL PBST, mounting medium containing DAPI (Vector labs) were applied and covered with glass slide. The slides were stored in dark at […] till analysis. Confocal images were obtained and processed essentially as published earlier (see Moore, R. G., Hill, E. K., Horan, T., Yano, N., Kim, K., MacLaughlan, S., Lambert-Messerlian, G., Tseng, Y. D., Padbury, J. F., Miller, M. C., Lange, T. S., Singh, R. K. Sci Rep. 4, 3574, 2014). Pancreatic tumor microarray (US Biomax, cat no: T142a) were deparaffinized, processed and stained with Septin-2 antibody (Sigma Aldrich, cat number: HPA018481) overnight, washed with PBST and incubated with source matched secondary (FITC) for an hour. Slide was washed in PBST (5×10 mL) for five minutes each. DAPI containing mounting media was applied and covered with a glass slide. Confocal images were acquired with Nikon C1si confocal microscope (Nikon Inc. Mellville N.Y.) using diode lasers 402, 488 and 561. […] Five cells were outlined and analyzed per field. […]

Structure (SMILES)	septin-2 filaments (BXPC-3 cells, 60 μM)	septin-2 needles (JIMT-1, 1 μM)	septin-2 needles (PANC-1, 1 uM)	septin-2 filaments (SKOV-3, 1 μM)
O=C(Nc1ccccc1)Nc1ccnc(Cl)c1 [FCF, N-(2-chloro-4-pyridyl)-N′-phenylurea, reference compound]	strengthen the septin-2 filaments			
O=C(Nc1cc(Cl)nc(Cl)c1)Nc1cccc(SC(F)(F)F)c1F [UR214-9]		structural disruptions and relocation to nuclear periphery	disarranged and translocated at the cell-surface	complete disruption of septin-2 filaments
